Measurements taken from patent publication US20250082635A1 (Janssen Pharmaceutica NV, priority 2023, published 2025).
Like-named read-outs stand apart in the source and are kept apart here.

What was measured:
clinical [1] = conditions: both, human, plasma, % fu, fraction unbound (mean (SD)), Day 1, 2 h
Experimental: (§1) Participants entered the study site on the morning of Day 1 and remained there until after collection of the 96 hours PK sample on Day 5. […] In addition, blood samples for determination of the plasma protein binding (PPB) were collected.
(§2) For all cohorts, 2-hours fraction unbound values were used to derive the unbound plasma concentrations and these unbound concentrations were used to derive unbound PK parameters.

plasma protein = assay: clinical; conditions: Day 1, 2 h
Experimental: as §1, §2

[2] = for mean AUC∞ compared to normal hepatic function / mean Cmax compared to normal hepatic function / mean Cmax,unbound compared to normal hepatic function: arithmetic means
Text: (§3) Participants were screened for eligibility for study entry. The diagnosis of hepatic impairment was based on medical history, a Child-Pugh Clinical Assessment Score of 5 to 6 (Grade A, mild hepatic impairment), 7 to 9 (Grade B, moderate hepatic impairment), and 10 to 15 (Grade C, severe hepatic impairment), and the presence of physical signs (liver firmness to palpitation, splenic enlargement, spider angioma, palmar erythema, parotid hypertrophy, testicular atrophy, or gynecomastia) or other modalities (computed tomography, ultrasound, magnetic resonance imaging, radionuclide liver/spleen scan or abdominal laparoscopy, or liver biopsy). The underlying disease leading to hepatic impairment was documented (e.g., hepatitis B, hepatitis C, alcoholic steatohepatitis, nonalcoholic fatty liver disease [hereditary/metabolic], or other). Hepatic encephalopathy grading was done by the Principal Investigator. The individual components of the Child-Pugh Clinical Assessment Score were documented. Participants with liver transplant were excluded.
(§4) The clinical study of Example 1 consisted of a screening phase (within 21 days before study intervention administration); an open-label treatment phase (Day 1 to Day 5) including the end-of-study (EOS) or withdrawal assessments (performed on Day 5 or upon early withdrawal). The study duration for each participant was approximately 4 weeks from screening (Day-21 to Day-1) to EOS assessments.
(§5) Healthy men and women between 18 and 79 years of age, inclusive; with a body mass index (BMI) between 18 and 38 kg/m^2, inclusive, and a body weight of not less than 50 kg were enrolled in the study according to their hepatic function. The degree of hepatic impairment was based on Child Pugh's classification. Using this classification, participants were grouped on the basis of 2 clinical features (hepatic encephalopathy and ascites) and 3 laboratory-based parameters (albumin, bilirubin, and prothrombin time).
(§6) The study included 24 human patients divided into 3 different cohorts: • Cohort 1:8 healthy participants with normal hepatic function and no evidence of liver damage and no evidence of liver damage, • Cohort 2:8 participants with mild hepatic impairment (having a Child-Pugh score of 5 to 6), and • Cohort 3:8 participants with moderate hepatic impairment (Child-Pugh score of 7 to 9).
(§7) Based on hepatic impairment classified during screening, 8 participants with mild hepatic impairment (Cohort 2) and 8 participants with moderate hepatic impairment (Cohort 3) were enrolled. After 8 participants each in Cohort 2 and Cohort 3 had completed study related procedures including the 96 hours PK sample, participants with normal hepatic function (Cohort 1) were enrolled. A group matching procedure was used to demographically match healthy participants having normal hepatic function with respect to sex, age, and weight to the participants enrolled in Cohort 2 and Cohort 3. […] Participants in the control group (Cohort 1) who tested positive for Hepatitis B surface antigen (HbsAg) or Hepatitis C antibodies were not permitted in the study.
(§8) In the normal hepatic function group (Cohort 1), at least 3 participants with an individual value above and at least 3 participants with an individual value below the mean age/mean body weight values of the combined mild (Cohort 2) and moderate (Cohort 3) hepatic impairment groups were enrolled. Two to 4 females were enrolled in each of the cohorts.
(§9) Participants remained in supine position from the predose assessments until 4-hour postdose but were allowed short upright stints for pressing needs (e.g., bathroom visits) and during consumption of meal.

clinical [3] = conditions: both, human, in vivo
Text: as §3, §4, §5, §6, §7, §8, §9

[4] = Estimated contribution of active metabolites to efficacy of seltorexant; conditions: active metabolite
[5] = 10 mg, Cohort 3 moderate hepatic impairment
[6] = 20 mg, Cohort 1 normal hepatic function
[7] = 20 mg, Cohort 2 mild hepatic impairment
[8] = Cohort 1 normal hepatic function
[9] = Cohort 2 mild hepatic impairment
[10] = Cohort 3 moderate hepatic impairment
[11] = dose normalized moderate hepatic impairment vs normal, total
[12] = dose normalized moderate hepatic impairment vs normal, unbound
[13] = mild hepatic impairment vs normal, total
[14] = mild hepatic impairment vs normal, unbound
[15] = 10 mg, AUClast, geometric mean, Cohort 3 (Test) moderate hepatic impairment, 10 mg dose normalized to 20 mg, total
[16] = 10 mg, AUClast, geometric mean, Cohort 3 (Test) moderate hepatic impairment, 10 mg dose normalized to 20 mg, unbound
[17] = 10 mg, AUC∞ (mean (SD)), Cohort 3 moderate hepatic impairment, 10 mg dose normalized to 20 mg, total in plasma
[18] = 10 mg, AUC∞, geometric mean, Cohort 3 (Test) moderate hepatic impairment, 10 mg dose normalized to 20 mg, total
[19] = 10 mg, AUC∞, geometric mean, Cohort 3 (Test) moderate hepatic impairment, 10 mg dose normalized to 20 mg, unbound
[20] = 10 mg, Cmax, geometric mean, Cohort 3 (Test) moderate hepatic impairment, 10 mg dose normalized to 20 mg, total
[21] = 10 mg, Cmax, geometric mean, Cohort 3 (Test) moderate hepatic impairment, 10 mg dose normalized to 20 mg, unbound
[22] = 10 mg, […], Cohort 3 moderate hepatic impairment, 10 mg dose normalized to 20 mg, total in plasma
[23] = 20 mg, AUClast, geometric mean, Cohort 1 (Reference) normal hepatic function, total
[24] = 20 mg, AUClast, geometric mean, Cohort 1 (Reference) normal hepatic function, unbound
[25] = 20 mg, AUClast, geometric mean, Cohort 2 (Test) mild hepatic impairment, total
[26] = 20 mg, AUClast, geometric mean, Cohort 2 (Test) mild hepatic impairment, unbound
[27] = 20 mg, AUC∞, geometric mean, Cohort 1 (Reference) normal hepatic function, total
[28] = 20 mg, AUC∞, geometric mean, Cohort 1 (Reference) normal hepatic function, unbound
[29] = 20 mg, AUC∞, geometric mean, Cohort 2 (Test) mild hepatic impairment, total
[30] = 20 mg, AUC∞, geometric mean, Cohort 2 (Test) mild hepatic impairment, unbound
[31] = 20 mg, Cmax, geometric mean, Cohort 1 (Reference) normal hepatic function, total
[32] = 20 mg, Cmax, geometric mean, Cohort 1 (Reference) normal hepatic function, unbound
[33] = 20 mg, Cmax, geometric mean, Cohort 2 (Test) mild hepatic impairment, total
[34] = 20 mg, Cmax, geometric mean, Cohort 2 (Test) mild hepatic impairment, unbound

Compound: Cc1cc(CO)nc(N2CC3CN(C(=O)c4c(F)cccc4-n4nccn4)CC3C2)n1 (stereo not shown) [M12]
- fraction unbound at 2 h (clinical [1]; [5]): 0.114
- fraction unbound at 2 h (clinical [1]; [6]): 0.0545
- fraction unbound at 2 h (clinical [1]; [7]): 0.0707
- % fb (mean (SD)) (plasma protein; [8]): 94.6 (1.91) %
- % fb (mean (SD)) (plasma protein; [9]): 92.9 (4.58) %
- % fb (mean (SD)) (plasma protein; [10]): 88.6 (3.84) %
- mean AUC∞ compared to normal hepatic function [2, 11]: comparable
- mean Cmax compared to normal hepatic function [2, 11]: 0.78 fold
- mean Cmax,unbound compared to normal hepatic function [2, 12]: 1.71 fold
- Cmax compared to normal hepatic function, based on GMR [2, 11]: 0.79 fold
- mean AUC∞ compared to normal hepatic function [2, 13]: 1.80 fold
- mean Cmax compared to normal hepatic function [2, 13]: comparable
- mean Cmax,unbound compared to normal hepatic function [2, 14]: 1.46 fold
- Cmax compared to normal hepatic function, based on GMR [2, 13]: ~1.11 fold
- AUC∞,unbound compared to normal hepatic function, based on GMR [2, 14]: ~1.99 fold
- AUC(0-t) (clinical [3]; [15]): 2380 ng·h/mL
- AUC(0-t) (clinical [3]; [16]): 258 ng·h/mL
- AUC(0-inf) (clinical [3]; [17]): 2580 ng·h/mL
- AUC(0-inf) (clinical [3]; [18]): 2400 ng·h/mL
- AUC(0-inf) (clinical [3]; [19]): 262 ng·h/mL
- Cmax (clinical [3]; [20]): 253 ng/mL
- Cmax (clinical [3]; [21]): 27.5 ng/mL
- AUC(0-t) (clinical [3]; [22]): 2550 ng·h/mL
- Cmax (clinical [3]; [22]): 261 ng/mL
- AUC(0-t) (clinical [3]; [23]): 2310 ng·h/mL
- AUC(0-t) (clinical [3]; [24]): 118 ng·h/mL
- AUC(0-t) (clinical [3]; [25]): 3950 ng·h/mL
- AUC(0-t) (clinical [3]; [26]): 234 ng·h/mL
- AUC(0-inf) (clinical [3]; [27]): 2320 ng·h/mL
- AUC(0-inf) (clinical [3]; [28]): 119 ng·h/mL
- AUC(0-inf) (clinical [3]; [29]): 3980 ng·h/mL
- AUC(0-inf) (clinical [3]; [30]): 236 ng·h/mL
- Cmax (clinical [3]; [31]): 320 ng/mL
- Cmax (clinical [3]; [32]): 16.3 ng/mL
- Cmax (clinical [3]; [33]): 355 ng/mL
- Cmax (clinical [3]; [34]): 21 ng/mL
- AUC(0-t) (clinical [3]; po, 10 mg): 1280 ng·h/mL
- Cmax (clinical [3]; po, 10 mg): 131 ng/mL
- Tmax (clinical [3]; po, 10 mg): 2.25 h
- half-life (clinical [3]; po, 10 mg): 4.07 h
- AUC(0-inf) (clinical [3]; po, 20 mg): 4860 ng·h/mL
- AUC(0-t) (clinical [3]; po, 20 mg): 4830 ng·h/mL
- Cmax (clinical [3]; po, 20 mg): 368 ng/mL
- half-life (clinical [3]; po, 20 mg): 3.44 h

Compound: Cc1nc(N2CC3CN(C(=O)c4c(F)cccc4-n4nccn4)CC3C2)nc(C)c1O (stereo not shown) [M16]
- fraction unbound at 2 h (clinical [1]; [5]): 0.0901
- fraction unbound at 2 h (clinical [1]; [6]): 0.04
- fraction unbound at 2 h (clinical [1]; [7]): 0.0568
- % fb (mean (SD)) (plasma protein; [8]): 96.0 (1.43) %
- % fb (mean (SD)) (plasma protein; [9]): 94.3 (3.95) %
- % fb (mean (SD)) (plasma protein; [10]): 91.0 (3.14) %
- contribution to efficacy of seltorexant (activity) [4]: < 4%
- mean AUC∞ compared to normal hepatic function [2, 11]: 0.74 fold
- mean Cmax compared to normal hepatic function [2, 11]: 0.62 fold
- AUC∞ compared to normal hepatic function, based on GMR [2, 11]: ~0.83 fold
- AUClast,unbound compared to normal hepatic function, based on GMR [2, 12]: ~1.82 fold
- Cmax,unbound compared to normal hepatic function, based on GMR [2, 12]: ~1.48 fold
- mean AUC∞ compared to normal hepatic function [2, 13]: comparable
- mean Cmax compared to normal hepatic function [2, 13]: 0.75 fold
- AUClast,unbound compared to normal hepatic function, based on GMR [2, 14]: ~1.25 fold
- Cmax,unbound compared to normal hepatic function, based on GMR [2, 14]: 0.96 fold
- AUC(0-t) (clinical [3]; [15]): 620 ng·h/mL
- AUC(0-t) (clinical [3]; [16]): 53 ng·h/mL
- AUC(0-inf) (clinical [3]; [17]): 683 ng·h/mL
- AUC(0-inf) (clinical [3]; [18]): 674 ng·h/mL
- AUC(0-inf) (clinical [3]; [19]): 57.6 ng·h/mL
- Cmax (clinical [3]; [20]): 41.8 ng/mL
- Cmax (clinical [3]; [21]): 3.57 ng/mL
- AUC(0-t) (clinical [3]; [22]): 631 ng·h/mL
- Cmax (clinical [3]; [22]): 43 ng/mL
- AUC(0-t) (clinical [3]; [23]): 778 ng·h/mL
- AUC(0-t) (clinical [3]; [24]): 29 ng·h/mL
- AUC(0-t) (clinical [3]; [25]): 783 ng·h/mL
- AUC(0-t) (clinical [3]; [26]): 36.3 ng·h/mL
- AUC(0-inf) (clinical [3]; [27]): 812 ng·h/mL
- AUC(0-inf) (clinical [3]; [28]): 30.3 ng·h/mL
- AUC(0-inf) (clinical [3]; [29]): 807 ng·h/mL
- AUC(0-inf) (clinical [3]; [30]): 37.4 ng·h/mL
- Cmax (clinical [3]; [31]): 64.6 ng/mL
- Cmax (clinical [3]; [32]): 2.41 ng/mL
- Cmax (clinical [3]; [33]): 50 ng/mL
- Cmax (clinical [3]; [34]): 2.32 ng/mL
- AUC(0-inf) (clinical [3]; po, 10 mg): 342 ng·h/mL
- AUC(0-t) (clinical [3]; po, 10 mg): 315 ng·h/mL
- Cmax (clinical [3]; po, 10 mg): 21.5 ng/mL
- Tmax (clinical [3]; po, 10 mg): 2.5 h
- half-life (clinical [3]; po, 10 mg): 10.2 h
- AUC(0-inf) (clinical [3]; po, 20 mg): 851 ng·h/mL
- AUC(0-t) (clinical [3]; po, 20 mg): 827 ng·h/mL
- Cmax (clinical [3]; po, 20 mg): 51.5 ng/mL
- Tmax (clinical [3]; po, 20 mg): 2 h
- half-life (clinical [3]; po, 20 mg): 13.4 h
